Columns and labels:
[1] = tested on: Staphylococcus epidermidis ATCC 35984; assay: MIC assay (growth inhibition of planktonic microorganisms); format: cell-based; details: 24 h at 37° C., MHB-II
Method: (§1) The exact weighed amount was noted and the volume of solvent to reach a 80 mM dilution calculated. Half of the volume was added first, by adding Tween 80 and let stand for 5 minutes. In a second step, the other half of the volume DMSO was added and resuspended to help the dilution process. The closed tube was inverted 5-10 times and then vortexed very thoroughly for at least 30 seconds. If after this procedure crystals were still visible, the tube was placed in a shaker at 37° C. at 150 rpm for at least 30 minutes (it is indicated if the dissolution period was longer than 2 h). […] In case of Bis(4-Chlorophenyl) thiosulfonate, a lower concentrated stock solution of 2 mM needed to be prepared. For that, the required amount of compound was weighed in and 2% v/v Tween80 and 2% v/v DMSO of the end volume of the stock solution was added to the substance. This mix was heated in a water bath set to 40° C. and occasionally shaken. When the whole amount of the substance reached dissolution, the volume was filled up with growth medium until the end volume. This 2 mM stock solution of Bis(4-Chlorophenyl) thiosulfonate was used in the MIC plate and diluted two-fold, resulting in a testing range of Bis(4-Chlorophenyl) thiosulfonate from 1 mM to 0.002 mM.
(§2) The microorganisms as indicated in Table 4 were used to inoculate a tryptic soy agar (TSA) plate and incubated overnight at 37° C. After incubation 3-5 well-isolated colonies with the same morphology were selected from the TSA plate and resuspended in 2 mL 0.9% saline solution with 3-6 glass beads and vortexed. The optical density at 600 nm (OD600) of the bacterial suspension was measured with a spectrophotometer (Evolution™ 201/220 UV-Visible Spectrophotometer, Thermo Fisher Scientific) and diluted to an OD600 of 0.0008, which resembles 10^6 CFU/mL.
(§3) The MIC assay was performed in a flat-bottom 96-microtiter plate. 50 μL of MHB-II was added into columns 2-11, and 100 μL to column 12 for sterility control. 100 μL of the 8 mM test compound solution (method 1) was added to column 1. A two-fold dilution series of the solution in MHB-II was achieved by resuspending 50 μL of the 8 mM solution from column 1 to column 2. This step was repeated until column 10. The respective concentration of Tween 80 and DMSO in column 1 was 2.5%, which is two-fold diluted throughout the plate. 50 μL of the bacterial suspension was added to column 1-11. The microtiter plates were sealed with adhesive polyethylene film for sealing microplates (Diversified Biotech) and incubated for 24 h at 37° C. After incubation the OD was measured at 600 nm with the Varioskan (Thermo Fisher Scientific). The minimal concentration which causes reduction of final OD600 of the bacterial culture by 50% (MIC50) and by 90% (MIC90) was calculated after normalization of the obtained OD values to the growth control in column 11. This assay was repeated three times in three independent experiments.

[2] = tested on: Pseudomonas aeruginosa ATCC 27853; assay: as above; format: cell-based; details: 24 h at 37° C., MHB-II
Method: as §1, §2, §3
Hereafter, the stock solutions of the compounds were used in three repetitions in a minimal inhibitory concentration (MIC) assay at a 2-fold dilution range with various bacteria from the gram-positive and gram-negative group and a yeast, Candida albicans. The concentrations that show only less than 10% growth after 24 h were considered the MIC90-values, whereas the concentrations that show 50% growth after 24 h when compared to the bacterial growth control were considered the MIC50-values. Escherichia coli and Staphylococcus aureus were used as representatives for a gram-negative bacteria and gram-positive bacteria, respectively. Furthermore, the yeast C. albicans was also tested.
In an Eppendorf tube between 10-20 mg of the test compound was weighed. Hereafter, the required amount of Tween 80 was added, followed by the amount DMSO. After vigorous shaking, the dissolved and transparent dilutions were diluted 10 times with Mueller Hinton Broth (MHB) for the MIC assay. […]

[3] = tested on: Staphylococcus epidermis ATCC 35984 biofilm; assay: MBEC assay (48 h biofilm, CFU log reduction); format: cell-based, Staphylococcus epidermidis; details: 20 h treatment, 0.125-1 mM tested
Method: (§4) For the MBEC assay (method 1.3) the solutions need to be diluted to a final concentration of 2 mM in 0.9% saline solution and then further diluted to 1 mM, 0.5 mM, 0.25 mM and 0.125 mM in saline. Those dilutions were added as treatment to the 96 well plates with the grown biofilm (see method 3) (0.5 mL needed for one strain). The dilution must stay transparent.
(§5) Frozen aliquots of Staphylococcus epidermis ATCC 35984 and Pseudomonas aeruginosa ATCC 27853 were used to inoculate 20 mL of Tryptic Soy Broth (TSB) in a 100 mL Erlenmeyer flask at 37° C. and 150 rpm and incubated overnight (Infors). The OD600 of the overnight culture was measured with a spectrophotometer (Evolution™ 201/220 UV-Visible Spectrophotometer, Thermo Fisher Scientific) and diluted to an ( ) 600 of 0.2, which resembles 10^8 CFU/mL. The cell suspension of OD600=0.2 was seeded into a U-bottom-shaped 96 well plates by pipetting 100 μL per well in column 1-11, column 12 was filled with 100 μL medium as sterility control. The 96 well plates were sealed with adhesive polyethylene film for sealing microplates and incubated for 48 h at 37° C. at static conditions. After the biofilm growth phase, 100 μL of treatment solutions (method 1) were added to the vials resulting in treatment concentrations of 1 mM, 0.5 mM, 0.25 mM and 0.125 mM and with the respective concentration of Tween 80 and DMSO each at 0.63%, 0.32%, 0.16% and 0.08%. The same concentration was applied to four different wells of the same bacterial strain, resulting in four replicates for each concentration and strain. The treatment was incubated for 20 h at 37° C. at static conditions. After the treatment the supernatant was carefully removed and the well with the biofilm washed carefully for one time with 200 μL 0.9% saline solution. 200 μL saline solution was added and the biofilm was resuspended thoroughly. When fully homogenized then 20 μl, was used for the first dilution in 180 μL 0.9% saline solution, which was prepared in a second plate. This dilution was continued until dilution step 10E-5 and 100 μL of the 10E-4 and 10E-5 dilution plated on a TSA plate. The TSA plates were incubated at 37° C. for 24 h. The colonies on the plates were enumerated, the colony forming units per ml, of the dispensed biofilm and averages thereof and the log reduction in comparison with the untreated sample from the same wells plate calculated. Reduction of colony forming units goes hand in hand with the thickness of the biofilm and thus with the number bacteria that are present in the biofilm. Therefore, a significant reduction of colony forming units in the biofilm was defined at the value of log reduction >1 or more. This assay was repeated two times in two independent experiments)

[4] = tested on: Pseudomonas aeruginosa ATCC 27853 biofilm; assay: MBEC assay (48 h biofilm, CFU log reduction); format: cell-based; details: 20 h treatment, 0.125-1 mM tested
Method: as §4, §5

[5] = tested on: Staphylococcus aureus LUH14616; assay: Resistance development on repeated exposure (19 passages); format: cell-based
Method: Experimental design. Potential resistance to AM-8 was assessed as described by Habets and Brockhurst (2012) (Therapeutic antimicrobial peptides may compromise natural immunity. Biol Lett 8:416-418). Briefly, log phase bacteria (S. aureus LUH 14616) were diluted in RPMI-mod to a concentration of 2×10^6 CFU/ml. Next, 50 μl of this bacterial suspension were mixed with 50 μl of a range of dilutions of AM-8 or—as comparator-rifampicin in v-bottom 96-wells plates. Thereafter, the plates were covered with a plastic seal and incubated for 24 hrs at 37° C. in a shaking incubator (200 rpm). The plates were then centrifuged for 5 min at 2,000 rpm and the growth inhibition was determined. To start the resistance development testing, 100 μl of a mid-log bacterial suspension containing 2×10^6 CFU/ml were mixed with 150 μl of RPMI-mod and 5 μl of this diluted bacterial suspension were applied to v-bottom wells containing a dilution range of AM-8 or antibiotics (various concentrations below and above MIC) in RPMI-mod (RPMI 1640 modified with 20 mM Hepes and L-glutamine and without sodium bicarbonate (Sigma-Aldrich); further referred to as RPMI-mod). After 24 hrs at 37° C. in a shaking incubator (200 rpm) the growth inhibition was determined. 100 μl of the bacterial suspension from the 0.5×MIC wells were mixed with 150 μl of RPMI-mod and 5 μl of the diluted bacterial suspension were used to inoculate a new 96-wells plate containing a dilution series of AM-8 or rifampicin, and these mixtures were then incubated as described above. If resistance developed, the concentration range of AM-8 and/or antibiotic was adjusted accordingly. This was repeated 19 times. Results are expressed as the fold-increase in MIC compared to the MIC at the start of the experiment.

[6] = reduction of final OD600 by 50%
[7] = reduction of final OD600 by 90%

| S. epidermidis MIC50 [1, 6] [mM] | S. epidermidis MIC90 [1, 7] [mM] | P. aeruginosa MIC50 [2, 6] [mM] | P. aeruginosa MIC90 [2, 7] [mM] | MIC50 ([1]; Staphylococcus epidermidis, ATCC35984, reduction of final OD600 by 50%, read-out: S. epidermidis MIC50) [mM] | MIC90 ([1]; Staphylococcus epidermidis, ATCC35984, reduction of final OD600 by 90%, read-out: S. epidermidis MIC90) [mM] | MIC50 ([2]; Pseudomonas aeruginosa, ATCC27853, 24 h, reduction of final OD600 by 50%, read-out: P. aeruginosa MIC50) [mM] | MIC90 ([2]; Pseudomonas aeruginosa, ATCC27853, reduction of final OD600 by 90%, read-out: P. aeruginosa MIC90) [mM] | Structure (SMILES) | S. epidermidis MBEC mM with log reduction ≥1 [3] [mM] | P. aeruginosa MBEC mM with log reduction ≥1 [4] [mM] | fold-increase in MIC compared to the MIC at the start ([5]; after passage 10) [fold] | fold-increase in MIC compared to the MIC at the start ([5]; after the last passage) [fold] | fold-increase in MIC compared to the MIC at the start ([5]; at passages 4-5) [fold] |
| --- | --- | --- | --- | --- | --- | --- | --- | --- | --- | --- | --- | --- | --- |
| 0.02 | 0.02 | 0.02 | 0.02 | – | – | – | – | [O-][S+](Sc1ccc(Cl)cc1)c1ccc(Cl)cc1 (stereo not drawn) [Bis (4-chlorophenyl) thiosulfinate, Bis(4-chlorophenyl) thiosulfinate] | >1 | >1 | – | – | – |
| – | – | – | – | > 4 | > 4 | > 4 | > 4 | CC(C)SSC(C)C [Di-isopropyl disulfide, reference compound] | >1 | >1 | – | – | – |
| – | – | – | – | – | – | – | – | CO[C@H]1/C=C/O[C@@]2(C)Oc3c(C)c(O)c4c(O)c(c(/C=N/N5CCN(C)CC5)c(O)c4c3C2=O)NC(=O)/C(C)=C\C=C\[C@H](C)[C@H](O)[C@@H](C)[C@@H](O)[C@@H](C)[C@H](OC(C)=O)[C@@H]1C [rifampicin, reference compound] | – | – | 146 | > 292 | 10 |
